Test results taken from US20140221301A1, “COMBINATION TREATMENT FOR CANCER” (priority 2011, published 2014).

How the values were obtained:
Assay type in all cases: cell-based, human
[1] = test system: normal hematopoietic cells; assay: Methylcellulose colony formation assay, normal hematopoietic cells; conditions: 5 μM, normal hematopoietic cells n=5, 14 days
Method: FIG. 2. Tigecycline induces cell death and inhibits clonogenic growth in primary AML cells preferential over normal hematopoietic cells. Mononuclear cells from peripheral blood of leukemia patients (blast count>80%) and normal G-CSF expanded donors was treated with increasing concentrations of tigecycline for 48 hours. Cell viability was measured by Annexin-PI flow cytometry staining. Cell viability is expressed as a mean percentage plus or minus SD (n=3) relative to DMSO-treated cells. Mononuclear cells from primary AML patient samples (A, B) and normal peripheral blood cells (C) were plated in methylcelluose with 5 μM of Tigecycline. (D) Colony forming units were counted at 7 days (AML) and 14 days (Normal) post plating. […]
To assess clonogenic growth, primary AML cells (1.0×10^5/mL) or granulocyte colony-stimulating factor (G-CSF) mobilized PBSCs (1.0×10^5/mL) were plated in duplicate with increasing concentrations of tigecycline in MethoCult GF H4434 medium (StemCell Technologies, Vancouver, BC) containing 1% methycellulose in IMDM, 30% FCS, 1% bovine serum albumin, 3 U/mL of recombinant human erythropoietin, 10^−4 M of 2-mercaptoethanol, 2 mM of L-glutamine, 50 ng/mL of recombinant human stem cell factor, 10 ng/mL of GM-CSF, and 10 ng/mL of rh IL-3). Seven days (AML samples) or 14 days (normal PBCS) after plating, the number of colonies was counted as previously described^31.

[2] = test system: Cox-1, Cox-2 (mitochondrially-translated subunits I and II) over Cox-4; assay: Immunoblotting of cytochrome C oxidase subunits in leukemia cells; conditions: TEX, OCI-AML2, two AML patients; 2.5 μM and 5 μM, 36 and 48 hours
Method: (§1) FIG. 4. […] (A) Cells from TEX, OCI-AML2 and two primary AML patients were treated with increasing concentrations (2.5 μM and 5 μM) of tigecycline for 36 and 48 hours of tigecycline. Total proteins were extracted and analyzed by western blotting for Cox-1, Cox-2, Cox-4, grp78, XIAP, actin and tubulin. (B) TEX and AML patient cells were treated with increasing concentrations (2.5 μM and 5 μM) of tigecycline. Cox-1, Cox-2, and Cox-4 mRNA expression relative 18S was determined by quantitative RT-PCR. Data is shown as mean±SD. (C) TEX cells were treated with increasing concentrations of tigecycline and chloramphenicol (CAP) for 72 hours. Complex I, II and IV enzyme activity relative to citrate synthase activity was determined as described in materials and methods. (D) Cells from TEX, primary AML patients, and normal donors were treated with increasing concentrations of tigecycline. Mitochondrial membrane potential (ΔΨ) was determined by staining cells with JC-1 dye, and flow cytometry analysis (Red/Green ratio). Reactive oxygen species generation (ROS) was determined by staining with h2-DCFDA and Dihydroethidium (DHE).
Total cell lysates were prepared from cells as described previously^32. […] Protein concentrations were measured by the DC Protein assay. […]

Complexes I and IV = assay: Respiratory chain enzyme activity relative to citrate synthase, Complexes I and IV; conditions: TEX cells, 2.5 μM and 5 μM, 72 hours
Method: (§2) FIG. 4. Tigecycline decreases mitochondrial Cox-1 protein levels in TEX cells. (A) Cells from TEX, OCI-AML2 and two primary AML patients were treated with increasing concentrations (2.5 μM and 5 μM) of tigecycline for 36 and 48 hours of tigecycline. Total proteins were extracted and analyzed by western blotting for Cox-1, Cox-2, Cox-4, grp78, XIAP, actin and tubulin. (B) TEX and AML patient cells were treated with increasing concentrations (2.5 μM and 5 μM) of tigecycline. Cox-1, Cox-2, and Cox-4 mRNA expression relative 18S was determined by quantitative RT-PCR. Data is shown as mean±SD. (C) TEX cells were treated with increasing concentrations of tigecycline and chloramphenicol (CAP) for 72 hours. Complex I, II and IV enzyme activity relative to citrate synthase activity was determined as described in materials and methods. […] Mitochondrial membrane potential (ΔΨ) was determined by staining cells with JC-1 dye, and flow cytometry analysis (Red/Green ratio). Reactive oxygen species generation (ROS) was determined by staining with h2-DCFDA and Dihydroethidium (DHE).
The effect of tigecycline treatment on enzyme activity of the respiratory chain complexes relative to the mitochondrial non-respiratory chain enzyme citrate synthase was examined. TEX leukemia cells were treated with tigecycline for […] and then respiratory chain enzyme relative to citrate synthase activity was analyzed. […]

[3] = test system: TEX cells and primary AML samples; assay: Mitochondrial membrane potential, JC-1, leukemia cells; conditions: 5 μM, times preceding onset of cell death
Method: as §2, with “(C) TEX cells were treated with increasing concentrations of tigecycline and chloramphenicol (CAP) for 72 hours.” left out
To measure mitochondrial membrane potential, cells were treated with tigecycline similarly as described above and then washed twice with PBS and incubated with 5 μM of 5,5′,6,6′-tetrachloro-1,1′,3,3′-tetraethyl benzimidazolylcarbocyanine iodide (JC-1, Sigma-Aldrich) for 20 minutes at 37° C. Each sample was then washed twice with 1 mL PBS and resuspended in 500 μL PBS prior to being read on a BD FACSCalibur. […]

TEX cells = assay: ROS generation (DCF-DA, DHE) in TEX cells; conditions: time-points up to 24 hours
Method: as §1
A byproduct of the mitochondrial enzyme activities of the electron transport chain is the generation of reactive oxygen species (ROS). […] Therefore, the role of tigecycline on ROS generation in leukemia cells by analyzing hydrogen peroxide ions (H2O2) using a dichlorofluorescein dye (DCF-DA), and superoxide anions using dihydroethidium (DHE) was examined.

Question: For CN(C)c1cc(NC(=O)CNC(C)(C)C)c(O)c2c1C[C@H]1C[C@H]3[C@H](N(C)C)C(O)=C(C(N)=O)C(=O)[C@@]3(O)C(O)=C1C2=O [tigecycline], which “reduction of clonogenic growth” value [1] is on record?
Answer: 34±5%

Question: And the “protein level of mitochondrially-translated subunits I and II over nuclear-translated subunit IV” value [2]?
Answer: preferential decrease

Question: What about the “enzyme activities of Complexes I and IV relative to citrate synthase” value (Complexes I and IV) of the same compound?
Answer: decreased

Question: What about the mitochondrial membrane potential [3] of the same compound?
Answer: decreased

Question: What about the ROS generation (TEX cells) of the same compound?
Answer: no observed increase
